For series [1], the target named is recombinant human kappa (KOR) opioid receptor (Homo sapiens (Human), UniProt P41145). The experiment in a line: biochemical. Type of series: binding.
Series [2] addresses KOR (Homo sapiens (Human), UniProt P41145). The experiment in a line: cAMP accumulation assay, forskolin-stimulated CHO-K1 cells stably expressing KOR. Type of series: cell-based. Conditions: for EC50: inhibition of cAMP accumulation, forskolin 20 μM, read-out: EC50 cAMP (nM)-KOR. The procedure:
(§1) Inhibition of cAMP accumulation by select compounds was measured in forskolin-stimulated CHO-K1 cells stably expressing KOR. CHO-K1 cells stably expressing KOR were harvested using Invitrogen Cell Dissociation Buffer, and then centrifuged at 1200 rpm for five minutes. The supernatant was aspirated and cells were resuspended in assay buffer to a density of 4×10^5 cells/mL. 25 μL of cells were added into a white half-area 96 well plate. Fourteen point serial dilutions of test compounds were carried out in assay buffer (PBS with 0.5 mM IBMX). Ketazocine was used as a positive control for each assay. 12.5 μL of compound was added to the cells in duplicate for each test concentration. The cells were then stimulated with 12.5 μL forskolin at a final concentration 20 μM. Cells were incubated for 45 minutes in a 37° C., 5% CO2 water jacketed incubator. CisBio HTRF cAMP assay reagent was used for cAMP quantitation. Two hours after substrate addition, signal at 665/615 nm was measured using the Perkin Elmer Victor X4 HTRF reader. Data analysis was done using GraphPad Prism, sigmoidal dose-response (variable slope) curve fitting.

Series [3] relates to Swiss Albino or CD-1 male mice. The experiment in a line: Acetic acid writhing (AAW) analgesic assay. It counts as in vivo. As to the method: Approaches for evaluating analgesic activity of a compound of the present invention in vivo include a “writhing test.” Briefly, the compound to be tested is administered [by, for example, injection (e.g., subcutaneous injection)] to the mouse. Thereafter, a 0.5% acetic acid solution is administered (i.p.) to a mouse and the numbers of writhing responses are counted for twenty minutes. Antinociception is quantified as reduction in the number of writhes respective to vehicle.
An analgesic assay was used to determine whether a given compound can reduce and/or prevent visceral pain in mice. The assay utilizes Swiss Albino or CD-1 male mice (5-10 mice per group), each mouse being approximately 0.015-0.030 kg on the study day. Mice were treated according to standard protocols.
The animal was given an intraperitoneal (IP) injection of an irritant (acetic acid) that induces “writhing” which may include: contractions of the abdomen, twisting and turning of the trunk, arching of the back and the extension of the hindlimbs. Mice are given a single IP injection (0.1 mL/10 g bodyweight) of a 0.5% acetic acid solution. After the injection the animals were returned to their observation enclosure and their behavior was observed. Contractions were counted between 0 and 20 minutes after the injection. The animals were used once. In certain instances, the test articles were administered at multiple doses to determine a dose response curve.
Table 4 provides the results for certain compounds of the present invention that were administered subcutaneously. Table 5 provides the results for certain compounds of the present invention that were administered orally.
(In general: In writhing tests, fewer writhes than in controls are read as antinociception.)

In series [4] the test system is Male Swiss Albino mice. The experiment in a line: Locomotor activity. Conditions: oral, 30 min pre-dose, 20 min observation. Type of series: in vivo. The procedure:
The locomotor activity (LMA) model may be conducted to measure changes in activity following test article administration, which may be used to assess the CNS effects of the drug. In brief, at a predetermined time post-dose, rats are placed into observation chambers which are equipped with infrared photocells that can sense motion in the x, y, and z planes. Activity is measured as the number of photobeam breaks in a given plane (horizontal or vertical) or total distance traveled.
Male Swiss Albino mice were treated orally with vehicle (0.5% HPMC+0.1% Tween80), ketazocine, Compound 12 (0.3, 3 and 30 mg/kg) or Compound 20 (0.3, 3 and 30 mg/kg) thirty minutes prior to placement in the locomotor activity chamber. Total distance traveled was measured over the twenty minute observation time following placement in the locomotor activity chamber. Data are normalized relative to percent distance traveled in the vehicle group. The efficacy of Compound 12 (reported as percent distance traveled in comparison to vehicle) was 88.85%, 83.74% and 0.08% at 0.3, 3 and 30 mg/kg dosages, respectively, while the locomotor activity of Compound 20 (reported as percent distance traveled in comparison to vehicle) was 100%, 88% and 0.03% at 0.3, 3 and 30 mg/kg dosages, respectively.

The target in series [5] is recombinant human mu (MOR) opioid receptor (Homo sapiens (Human), UniProt P35372). The experiment in a line: Radioligand competition binding assay, mu opioid receptor. Conditions: [3H]Naloxone 4 nM, CHO-K1 membranes. As to the method: The binding affinities of certain compounds of the present invention were evaluated using radioligand binding assays in membranes prepared from CHO-K1 cells expressing recombinant human kappa (KOR) or mu (MOR) opioid receptors.
Competition binding experiments were conducted by incubating membrane protein to equilibrium in triplicate in the presence of a fixed concentration of radioligand and increasing concentrations of test compound for evaluation of binding to KOR or single concentration (10 μM) of test compound for evaluation of binding to MOR in 101 μL final volume. The radioligands used were specific for each receptor type, and the assay conditions are described in Table 1. Following incubations, the membranes were rapidly filtered through GF/B filter plate (presoaked with 0.5% polyethyleneimine), washed five times with cold 50 mM Tris-HCl, pH 7.5, and the bound radioactivity was then measured by liquid scintillation counting. Non-specific binding was measured in the presence of excess ligand; this value was subtracted from the total binding to yield the specific binding at each test concentration.
Ki (affinity of test compound) was obtained using the Cheng Prusoff correction using experimental Kd (affinity of radioligand) values that were previously determined under these assay conditions. For MOR binding, compounds were tested at one concentration, 10 μM, to evaluate its ability to inhibit specific radioligand binding. The values are expressed as percent inhibition of specific binding and greater than 50% inhibition of binding was considered to be significant.
With respect to determining MOR binding, an approach similar to one used for KOR binding was used.

Series [6] concerns the target MOR (Homo sapiens (Human), UniProt P35372). The experiment in a line: cAMP accumulation assay, forskolin-stimulated CHO-K1 cells stably expressing MOR. Type of series: cell-based. Conditions: inhibition of cAMP accumulation. As to the method: as §1
Using a similar approach, inhibition of cAMP accumulation by select compounds was also determined in forskolin-simulated CHO-K1 cells stably expressing MOR (wherein for this assay a density of 8×10^5 cells/mL was used and the positive control was DAMGO). Certain compounds of the present invention were tested as described above.

The mark [7] stands for this setting: Mus musculus, sc, 20 min, subcutaneous, read-out: AAW % Efficacy.
[8] abbreviates: Cheng Prusoff correction, [3H]Diprenorphine 1 nM, CHO-K1 membranes, read-out: Kappa receptor binding Ki.
The mark [9] stands for this setting: Mus musculus, po, 20 min, oral, read-out: AAW % Efficacy.

Each structure is given as a SMILES string. pEC50, pIC50, pKi: −log10 of the molar value. Where two headings read alike, the source gives them in different places.

A word on the pIC50: it is the negative decadic logarithm of the IC50, by convention in mol/L. One may read the pKi as the negative decadic logarithm of the Ki, by convention in mol/L. For orientation: pEC50 means −log10 of the EC50, conventionally taken in molar units. A higher pEC50 goes with a low EC50. As usually defined, the EC50 is the concentration needed to bring the measured effect to its halfway point.

Regarding `COCCOCCOCCOc1ccc2c(c1)[C@]1(C)CCN(CC3CC3)[C@H](C2=O)[C@@H]1C` [Compound 4, (2S,6R,11R)-3-(Cyclopropylmethyl)-8-{2-[2-(2-methoxyethoxy)ethoxy]ethoxy}-6,11-dimethyl-3,4,5,6-tetrahydro-2,6-methano-3-benzazocin-1(2H)-one], in series [1], the pIC50 was 6.06 and the negative-log Ki (pKi) was 6.69. The molecule also gave a pEC50 in series [2] of 8.03. The inhibition in vivo at 200 mg/kg in series [3] (Mus musculus, po, 20 min, oral, 200 mg/kg, read-out: AAW % Efficacy) amounted to 3.8%. Besides, the inhibition in vivo at 3 mg/kg in series [3] (Mus musculus, sc, 20 min, subcutaneous, 3 mg/kg, read-out: AAW % Efficacy) stood at 0%. Moreover, in series [3] (setting [7]), the inhibition in vivo at 10 mg/kg was 39.7%. The inhibition in vivo at 30 mg/kg in series [3] (Mus musculus, sc, 20 min, subcutaneous, 30 mg/kg, read-out: AAW % Efficacy) worked out at 100%.

On to `COCCOCCOCCOCCOCCNc1ccc(Nc2ccc3c(c2)[C@]2(C)CCN(CC4CC4)[C@H](C3=O)[C@@H]2C)cc1` [Compound 12, (2S,6R,11R)-8-((4-(2,5,8,11,14-pentaoxahexadecan-16-ylamino)phenyl)amino)-3-(cyclopropylmethyl)-6,11-dimethyl-3,4,5,6-tetrahydro-2,6-methanobenzo[d]azocin-1(2H)-one], for which the “percent distance traveled in comparison to vehicle” value in series [4] (0.3 mg/kg) worked out at 88.85%; in series [4] (3 mg/kg) it was 83.74%; in series [4] (30 mg/kg), 0.08%. Also, the pKi in series [1] (setting [8]) was 8.30; in series [5] it was 7.23. The EC50 in series [2] came to 7 nM; in series [6] it was 189 nM. In series [3] (setting [9]), the inhibition in vivo at 0.1 mg/kg worked out at 22.5%. Besides, in series [3] (setting [9]), the inhibition in vivo at 1 mg/kg amounted to 56.9%. Moreover, the inhibition in vivo at 10 mg/kg in series [3] (setting [9]) was 97.2%. For the same molecule, the “AAW % Efficacy” value in series [3] (subcutaneous, 3 mg/kg) is 68.6%; in series [3] (subcutaneous, 30 mg/kg), 100.0%. Besides, in series [3] (subcutaneous, 3 mg/kg, outlier data removed), the “AAW percent efficacy, outlier data removed” value is on record as 65.09.

As to `C[C@H]1[C@H]2C(=O)c3ccc(Nc4ccc(NCCOCCOCCOCCOCCOC(F)(F)F)cc4)cc3[C@]1(C)CCN2CC1CC1` [Compound 20, (2S,6R,11R)-3-(cyclopropylmethyl)-6,11-dimethyl-8-((4-((1,1,1-trifluoro-2,5,8,11,14-pentaoxahexadecan-16-yl)amino)phenyl)amino)-3,4,5,6-tetrahydro-2,6-methanobenzo[d]azocin-1(2H)-one], the results for the “percent distance traveled in comparison to vehicle” value in series [4] (0.3 mg/kg), in series [4] (3 mg/kg) and in series [4] (30 mg/kg) were 100%, 88% and 0.03%, respectively. Further, the pKi was 8.54 in series [1] (setting [8]) and 7.35 in series [5]. For the same molecule, the EC50 was 6.1 nM in series [2] and 128 nM in series [6]. Moreover, the inhibition in vivo at 0.3 mg/kg in series [3] (Mus musculus, po, 20 min, oral, 0.3 mg/kg, read-out: AAW % Efficacy) was 39.1%. In addition, in series [3] (Mus musculus, po, 20 min, oral, 3 mg/kg, read-out: AAW % Efficacy), the inhibition in vivo at 3 mg/kg came out at 79.5%. Besides, the inhibition in vivo at 30 mg/kg in series [3] (Mus musculus, po, 20 min, oral, 30 mg/kg, read-out: AAW % Efficacy) turned out to be 100%. Besides, in series [3] (setting [7]), the inhibition in vivo at 10 mg/kg stood at 88.1%.

With `C[C@H]1[C@H]2C(=O)c3ccc(NC(C)(C)CO)cc3[C@]1(C)CCN2CC1CC1` [Compound 23, (2S,6R,11R)-3-(Cyclopropylmethyl)-8-((1-hydroxy-2-methylpropan-2-yl)amino)-6,11-dimethyl-3,4,5,6-tetrahydro-2,6-methanobenzo[d]azocin-1(2H)-one], the pKi was 5.98 in series [1] (setting [8]) and 5.10 in series [5]. For the same molecule, the EC50 in series [2] stood at 395 nM; in series [6], 3290 nM.

On to `C[C@H]1[C@H]2C(=O)c3ccc(NC(CO)CO)cc3[C@]1(C)CCN2CC1CC1` [Compound 24, (2S,6R,11R)-3-(cyclopropylmethyl)-8-((1,3-dihydroxypropan-2-yl)amino)-6,11-dimethyl-3,4,5,6-tetrahydro-2,6-methanobenzo[d]azocin-1(2H)-one], for which the pKi in series [1] (setting [8]) was 6.31; in series [5], 5.74. The results for the EC50 in series [2] and in series [6] were 107 nM and 598 nM, respectively.

For the molecule `COCCOCCOCCOCCOCCO[C@@H]1c2ccc(O)cc2[C@]2(C)CCN(CC3CC3)[C@H]1[C@@H]2C` [Compound 25, (1R,2S,6R,11R)-1-(2,5,8,11,14-pentaoxahexadecan-16-yloxy)-3-(cyclopropylmethyl)-6,11-dimethyl-1,2,3,4,5,6-hexahydro-2,6-methanobenzo[d]azocin-8-ol], the pKi in series [1] was 6.02. For the same molecule, the EC50 in series [2] was 195 nM.

For the molecule `C[C@H]1[C@H]2C(=O)c3ccc(O)cc3[C@]1(C)CCN2CC1CC1` [Ketazocine, (2S,6R,11R)-3-(cyclopropylmethyl)-8-hydroxy-6,11-dimethyl-3,4,5,6-tetrahydro-2,6-methanobenzo[d]azocin-1(2H)-one, reference compound], the pKi in series [1] (setting [8]) is 8.89. Moreover, in series [1] ([3H]Diprenorphine 1 nM, CHO-K1 membranes, read-out: Kappa receptor binding IC50), the pIC50 is 8.25. The pIC50 in series [5] was 8.08. In addition, the negative logarithm of the EC50 (pEC50) in series [2] was 9.26. In series [3] (setting [9]), the inhibition in vivo at 0.1 mg/kg was 12.8%, the inhibition in vivo at 1 mg/kg was 34.5% and the inhibition in vivo at 10 mg/kg stood at 58.9%. The inhibition in vivo at 100 mg/kg in series [3] (Mus musculus, po, 20 min, oral, 100 mg/kg, read-out: AAW % Efficacy) was 100%. Also, the inhibition in vivo at 0.01 mg/kg in series [3] (Mus musculus, sc, 20 min, subcutaneous, 0.01 mg/kg, read-out: AAW % Efficacy) worked out at 10.6%. Further, in series [3] (setting [7]), the inhibition in vivo at 0.1 mg/kg is 50% and the inhibition in vivo at 1 mg/kg worked out at 100%.

The values above are taken from patent US9688638B2, “Opioid agonists and uses thereof” (priority 2013, dated 2017).
